{
  "source": "patent US20030022872A1",
  "about": "“Vitamin d derivatives having substituents at the 2 alpha-position” (priority 2000, published 2003)",
  "molecular_target": "T1, bovine thymus vitamin D receptor (VDR) (Bos taurus, UniProt Q28037)",
  "T1 sequence (Q28037 1-426)": "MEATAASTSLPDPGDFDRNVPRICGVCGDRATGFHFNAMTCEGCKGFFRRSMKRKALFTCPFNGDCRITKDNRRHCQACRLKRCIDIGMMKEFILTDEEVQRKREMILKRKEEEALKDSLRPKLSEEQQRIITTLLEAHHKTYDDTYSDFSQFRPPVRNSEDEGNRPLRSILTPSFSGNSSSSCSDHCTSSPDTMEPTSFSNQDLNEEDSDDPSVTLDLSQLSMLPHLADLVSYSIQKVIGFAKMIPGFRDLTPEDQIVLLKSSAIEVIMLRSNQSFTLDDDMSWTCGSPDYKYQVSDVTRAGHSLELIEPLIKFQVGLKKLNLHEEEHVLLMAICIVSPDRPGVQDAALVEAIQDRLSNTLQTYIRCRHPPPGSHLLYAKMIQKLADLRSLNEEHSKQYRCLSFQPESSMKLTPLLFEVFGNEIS",
  "conditions": "relative value with 1α,25-dihydroxyvitamin D3 taken as 100; ratio of concentrations inhibiting 50% of [3H]-1α,25-dihydroxyvitamin D3 binding (0.1 nM tracer, overnight at 4° C.)",
  "method": "Each of the resultant supernatants (500 μl) was mixed with ACS-II (9.5 ml) ([sequence], England) for radioactivity measurement.\nX: relative VDR binding property of the vitamin D derivative of the present invention",
  "data": [
    {"substance": "(5Z,7E)-(1S,2S,3R,20R)-2-(3-hydroxypropoxy)-9,10-seco-5,7,10(19)-cholestatriene-1,3,25-triol [Compound 16]", "values": [
      {"measurement": "relative VDR binding property X=(y/x)×100", "value": 180}
    ]}
  ]
}
